How the values were obtained:
HepG2 cells [1] = assay: Cell vitality (ATP lite kit); format: cell-based, human; settings: for Vitality %): [conc.]final 1.0 mM, HepG2, 72-hour (3x24 hr) treatment, control = 100
Procedure: In order to analyse the effects of the solution of the invention, alpha lipoic acid contained therein was digested in artificial gastric juice and subsequently administered in the culture medium at the final concentration of 0.5 or 1mM. The cell vitality effects recorded were compared with those achieved in a parallel control experiment wherein alpha lipoic acid dissolved in a solvent of election for cell studies, i.e. DMSO (but not digested in gastric juice) was used. […]

[2] = humans, oral route, 600 mg, various formulations; cited from earlier work
HepG2 cells [3] = assay: Glucose in the medium, insulin-resistant diabetes cellular model (Glucose assay kit); format: cell-based, human; settings: 1 mM for 48 hr; HepG2 in medium enriched with glucose 30mM; reference control = 100%
Procedure: Lastly, the hypoglycaemia-inducing action of the lipoic acid formulated in aqueous solution of the invention was also evaluated, by utilising an insulin-resistant diabetes cellular model. HepG2 cells cultivated in a medium enriched with glucose and free of insulin mimicked certain conditions present in the hepatocytes of diabetic patients; in addition, certain functions of the culture medium, considered as a container of nutritional substances and an accumulation container for those substances excreted, could be compared to plasma circulation. […]
Table 11 reports some of the most significant results achieved by using the Sigma Aldrich Glucose assay kit to determine the glucose; more specifically, the values obtained from the culture medium following administration for 48 hr of lipoic acid (1mM) prepared in DMSO or formulated in aqueous solution at 30 % of propylene glycol, in accordance with the present invention. The most significant decrease in glucose was in fact observed with the R-enantiomer of alpha lipoic acid in the solution of the invention.

SK-N-SH cell cultures = assay: ROS induced from H2O2 in cell cultures; format: cell-based, human; settings: for Ros (% compared to ctrl) 24h: 24h pre-treatment, then 2 hours 1.5mM mM H2O2; for Ros (% compared to ctrl) 48h: 48h pre-treatment, then H2O2
Procedure: Another important function ascribable to lipoic acid is that of contrasting the formation of reactive species of oxygen induced from H2O2. […] A further aim was to verify whether R-alpha lipoic acid retained this function also in an aqueous solution. For this reason, increasing doses of the same, coming from the above-used solution of the invention and subjected to digestion in artificial gastric juice, were added to the culture medium for different intervals of time (24 hr and 48 hr) before inducing an oxidative stress with H2O2. The same reaction was performed as a control, by using the R-alphaLA prepared in DMSO, but dissolved directly in medium to obtain the same working concentrations.
In Table 10, the values of ROS are reported as % with respect to those observed in the controls after 24 hours of maintenance in the culture and 2 hours of treatment with 1.5mM mM H2O2. In the first box of the Table, the results are shown as obtained after administration of R-alphaLA prepared in DMSO and then diluted directly in the medium to obtain the reference final concentrations; in the second box, on the other hand, R-alphaLA was first dissolved in the solution of the invention, subsequently digested in gastric juice and finally diluted in the medium. As summarised in Table 10, in each case, a dose-dependent response of alpha lipoic acid in preventing the formation of the ROS was observed over the first 24 hours.

Compound	Vitality %) (HepG2 cells [1])	bioavailability [2]	cell vitality values compared to the control (HepG2 cells [1]; 1mM, 48-hr treatment, dissolved in DMSO, HepG2, previous tests)	Glucose in the medium (%) (HepG2 cells [3])	Ros (% compared to ctrl) 24h (SK-N-SH cell cultures; 100µM)	Ros (% compared to ctrl) 48h (SK-N-SH cell cultures; 100µM)	Ros (% compared to ctrl) 24h (SK-N-SH cell cultures; 200µM)	Ros (% compared to ctrl) 48h (SK-N-SH cell cultures; 200µM)
O=C(O)CCCCC1CCSS1 (racemic) [(RS) alphaLA (in DMSO), alpha lipoic acid]	35.48%	–	–	–	–	–	–	–
O=C(O)CCCCC1CCSS1 (stereo not drawn) [lipoic acid, 1,2-dithiolane-3-pentanoic acid]	–	less than 30%	–	–	–	–	–	–
O=C(O)CCCC[C@@H]1CCSS1 [(R) alphaLA (in DMSO), alpha-R-lipoic acid]	40.33%	–	halved	89%	77.87%	99.26%	49.18%	103.98%
